Measurements taken from patent publication US10934298B2, “Substituted pyrazolo[1,5-a]pyrimidines for the treatment of medical disorders” (BIAL—BioTech Investments, Inc., priority 2016, dated 2021).

Molecular target: T1, glucocerebrosidase (Gcase) (Homo sapiens, UniProt P04062)
T1 construct: micellar solution containing 10 nM GCase and 100 nM saposin C
T1 sequence (P04062 40-536): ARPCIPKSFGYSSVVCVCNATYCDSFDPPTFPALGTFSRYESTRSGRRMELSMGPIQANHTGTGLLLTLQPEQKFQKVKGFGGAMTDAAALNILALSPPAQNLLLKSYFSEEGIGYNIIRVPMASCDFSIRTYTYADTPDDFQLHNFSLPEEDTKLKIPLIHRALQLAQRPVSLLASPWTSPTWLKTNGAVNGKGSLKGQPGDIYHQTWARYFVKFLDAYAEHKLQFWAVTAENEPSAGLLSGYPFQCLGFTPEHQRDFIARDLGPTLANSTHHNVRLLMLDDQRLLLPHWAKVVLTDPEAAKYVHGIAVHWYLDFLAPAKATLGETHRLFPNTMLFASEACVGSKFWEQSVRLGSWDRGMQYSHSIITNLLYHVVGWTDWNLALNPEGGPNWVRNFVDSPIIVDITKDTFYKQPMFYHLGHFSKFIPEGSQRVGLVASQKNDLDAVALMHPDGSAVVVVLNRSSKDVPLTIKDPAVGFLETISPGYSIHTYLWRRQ
Test: Glucocerebrosidase (Gcase) activation assay with 4-methylumbelliferyl-beta-D-glucopyranoside substrate, saposin C and phosphatidylserine/triton micelles, fluorescence readout
Assay type: biochemical
How it was run: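 Test compounds are first screened at 1.0 and 0.1 μM final, then titrated in 8 points (3-fold from 5 μM) against human GCase with saposin C in phosphatidylserine/triton X-100 micelles at pH 4.7. Reactions run 15 min at room temperature, with fluorescence read at 365/440 nm.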

| SMILES | Percent Gcase Activation, 0.1 μM Test Compound (test compound at 0.1 μM) | Percent Gcase Activation, 1 μM Test Compound (test compound at 1.0 μM) | also measured |
| --- | --- | --- | --- |
| Cc1cnc(-c2cc(C)n3ncc(C(=O)NC(C4CC4)C(F)(F)F)c3n2)o1 (centres unmarked) [III-253] | *** (greater than 20% Gcase activation) | +++ (Gcase activation greater than 60%) | – |
| Cc1cc(-c2ccccn2)nc2c(C(=O)NC(C)C(F)(F)F)cnn12 (centres unmarked) [III-50] | – | – | Percent Gcase Activation, 0.1 μM Test Compound (0.1 μM test compound, Table 3A): ** (Gcase activation in the range of 10% up to 20%); Percent Gcase Activation, 1 μM Test Compound (1 μM test compound, Table 3A): +++ (Gcase activation greater than 60%) |
| CCc1cc(N2CCN(C(C)C)C2=O)nc2c(C(=O)NC(C3CC3)C(F)(F)F)cnn12 (centres unmarked) [III-224] | ** (Gcase activation in the range of 10% up to 20%) | +++ (Gcase activation greater than 60%) | – |
| Cc1cc(-c2ccc3c(c2)OCO3)nc2c(C(=O)NC(C)C(F)(F)F)cnn12 (centres unmarked) [III-289] | – | – | Percent Gcase Activation, 0.1 μM Test Compound (0.1 μM test compound): *** (greater than 20% Gcase activation); Percent Gcase Activation, 1 μM Test Compound (1 μM test compound): +++ (Gcase activation greater than 60%) |
| Cc1cc(-c2nnc(C(C)C)o2)nc2c(C(=O)N[C@H](C3CC3)C(F)(F)F)cnn12 [III-391] | – | – | Percent Gcase Activation, 0.1 μM Test Compound (0.1 μM test compound): ** (Gcase activation in the range of 10% up to 20%); Percent Gcase Activation, 1 μM Test Compound (1 μM test compound): +++ (Gcase activation greater than 60%) |
| Cc1cc(-c2ccc3c(c2)OCO3)nc2c(C(=O)N[C@@H](C)C3CC3)cnn12 [III-210] | *** (greater than 20% Gcase activation) | +++ (Gcase activation greater than 60%) | – |
| Cc1cc(-c2nc3ccccc3n2C)nc2c(C(=O)NC(C3CC3)C(F)(F)F)cnn12 (centres unmarked) [III-312] | – | – | Percent Gcase Activation, 0.1 μM Test Compound (0.1 μM test compound): ** (Gcase activation in the range of 10% up to 20%); Percent Gcase Activation, 1 μM Test Compound (1 μM test compound): ++ (Gcase activation in the range of 30% up to 60%) |
| Cc1cc(C)n2ncc(C(=O)N[C@H]3CC[C@H](OC(C)(C)C)CC3)c2n1 [III-190] | * (less than 10% Gcase activation) | + (less than 30% Gcase activation) | – |
| Cc1cc(N2CCNC2=O)nc2c(C(=O)NC(C3CC3)C(F)(F)F)cnn12 (centres unmarked) [III-228] | * (less than 10% Gcase activation) | +++ (Gcase activation greater than 60%) | – |
| Cc1cc(-c2cccc(OC3CC3)c2)nc2c(C(=O)NC(C)C(F)(F)F)cnn12 (centres unmarked) [III-77] | – | – | Percent Gcase Activation, 0.1 μM Test Compound (0.1 μM test compound, Table 3A): *** (greater than 20% Gcase activation); Percent Gcase Activation, 1 μM Test Compound (1 μM test compound, Table 3A): +++ (Gcase activation greater than 60%) |
| Cc1cc(NC2CC2)nc2c(C(=O)N[C@@H](C)C3CC3)cnn12 [III-166] | ** (Gcase activation in the range of 10% up to 20%) | +++ (Gcase activation greater than 60%) | – |
| CCc1cc(-c2ccccn2)nc2c(C(=O)NC(C)C3CC3)cnn12 (centres unmarked) [III-49] | – | – | Percent Gcase Activation, 0.1 μM Test Compound (0.1 μM test compound, Table 3A): * (less than 10% Gcase activation); Percent Gcase Activation, 1 μM Test Compound (1 μM test compound, Table 3A): +++ (Gcase activation greater than 60%) |
| COc1c(F)cccc1-c1cc(C)n2ncc(C(=O)N[C@@H](C)C3CC3)c2n1 [III-138] | ** (Gcase activation in the range of 10% up to 20%) | +++ (Gcase activation greater than 60%) | – |
| Cc1cc(-c2ccc3ocnc3c2)nc2c(C(=O)NC(C3CC3)C(F)(F)F)cnn12 (centres unmarked) [III-108] | *** (greater than 20% Gcase activation) | +++ (Gcase activation greater than 60%) | – |
| Cc1cc(C)n2ncc(C(=O)N[C@@H](C)C3CC3)c2n1 [III-1] | – | – | Percent Gcase Activation, 0.1 μM Test Compound (0.1 μM test compound, Table 3A): * (less than 10% Gcase activation); Percent Gcase Activation, 1 μM Test Compound (1 μM test compound, Table 3A): ++ (Gcase activation in the range of 30% up to 60%) |
| Cc1cc(-c2cccnc2)nc2c(C(=O)N[C@@H](C3CC3)C(F)(F)F)cnn12 [III-89] | ** (Gcase activation in the range of 10% up to 20%) | +++ (Gcase activation greater than 60%) | – |
| Cc1cc(-c2ccon2)nc2c(C(=O)N[C@@H](C3CC3)C(F)(F)F)cnn12 [III-241] | *** (greater than 20% Gcase activation) | +++ (Gcase activation greater than 60%) | – |
| Cc1cc(-c2ccncc2)n2ncc(C(=O)N[C@@H](C)C3CC3)c2n1 [III-29] | – | – | Percent Gcase Activation, 0.1 μM Test Compound (0.1 μM test compound, Table 3A): * (less than 10% Gcase activation); Percent Gcase Activation, 1 μM Test Compound (1 μM test compound, Table 3A): + (less than 30% Gcase activation) |
| Cc1cc(C2=CC(C)(C)CCO2)nc2c(C(=O)NC(C3CC3)C(F)(F)F)cnn12 (centres unmarked) [III-322] | – | – | Percent Gcase Activation, 0.1 μM Test Compound (0.1 μM test compound): *** (greater than 20% Gcase activation); Percent Gcase Activation, 1 μM Test Compound (1 μM test compound): +++ (Gcase activation greater than 60%) |
| Cc1cc(-c2ccc(F)c(C(N)=O)c2)nc2c(C(=O)N[C@@H](C)C3CC3)cnn12 [III-160] | ** (Gcase activation in the range of 10% up to 20%) | +++ (Gcase activation greater than 60%) | – |
| Cc1cc(N2CC(C(C)C)OC2=O)nc2c(C(=O)NC(C3CC3)C(F)(F)F)cnn12 (centres unmarked) [III-316] | – | – | Percent Gcase Activation, 0.1 μM Test Compound (0.1 μM test compound): ** (Gcase activation in the range of 10% up to 20%); Percent Gcase Activation, 1 μM Test Compound (1 μM test compound): +++ (Gcase activation greater than 60%) |
| Cc1cc(-c2cncc(C(F)(F)F)c2)nc2c(C(=O)NC(C)C(F)(F)F)cnn12 (centres unmarked) [III-285] | – | – | Percent Gcase Activation, 0.1 μM Test Compound (0.1 μM test compound): *** (greater than 20% Gcase activation); Percent Gcase Activation, 1 μM Test Compound (1 μM test compound): +++ (Gcase activation greater than 60%) |
| C#CC(NC(=O)c1cnn2c(C)cc(-c3cccc(Cl)c3)nc12)C(F)(F)F (centres unmarked) [III-99] | *** (greater than 20% Gcase activation) | ++ (Gcase activation in the range of 30% up to 60%) | – |
| CCc1cc(-c2ccccn2)n2ncc(C(=O)NC(C)C(F)(F)F)c2n1 (centres unmarked) [III-51] | – | – | Percent Gcase Activation, 0.1 μM Test Compound (0.1 μM test compound, Table 3A): * (less than 10% Gcase activation); Percent Gcase Activation, 1 μM Test Compound (1 μM test compound, Table 3A): + (less than 30% Gcase activation) |
| Cc1ccc(-c2cc(C)n3ncc(C(=O)N[C@H](C4CC4)C(F)(F)F)c3n2)cn1 [III-279] | ** (Gcase activation in the range of 10% up to 20%) | +++ (Gcase activation greater than 60%) | – |
| Cc1cc(-c2ccc3ocnc3c2)nc2c(C(=O)NC(C3CC3)C(F)(F)F)cnn12 (centres unmarked) [III-83] | – | – | Percent Gcase Activation, 0.1 μM Test Compound (0.1 μM test compound, Table 3A): *** (greater than 20% Gcase activation); Percent Gcase Activation, 1 μM Test Compound (1 μM test compound, Table 3A): +++ (Gcase activation greater than 60%) |
| COc1cc(F)ccc1-c1cc(C)n2ncc(C(=O)NC(C3CC3)C(F)(F)F)c2n1 (centres unmarked) [III-149] | *** (greater than 20% Gcase activation) | +++ (Gcase activation greater than 60%) | – |
| Cc1nc(-c2cc(C)n3ncc(C(=O)N[C@H](C4CC4)C(F)(F)F)c3n2)c(C)o1 [III-333] | – | – | Percent Gcase Activation, 0.1 μM Test Compound (0.1 μM test compound): *** (greater than 20% Gcase activation); Percent Gcase Activation, 1 μM Test Compound (1 μM test compound): +++ (Gcase activation greater than 60%) |
| Cc1cc(N2CCN(CC(F)(F)F)C2=O)nc2c(C(=O)NC(C3CC3)C(F)(F)F)cnn12 (centres unmarked) [III-233] | ** (Gcase activation in the range of 10% up to 20%) | +++ (Gcase activation greater than 60%) | – |
| COc1cccc(-c2cc(C)n3ncc(C(=O)NC(C)(C)C(F)(F)F)c3n2)c1 [III-405] | – | – | Percent Gcase Activation, 0.1 μM Test Compound (0.1 μM test compound): *** (greater than 20% Gcase activation); Percent Gcase Activation, 1 μM Test Compound (1 μM test compound): +++ (Gcase activation greater than 60%) |

Continued, in another order:

| Percent Gcase Activation, 0.1 μM Test Compound (test compound at 0.1 μM) | Percent Gcase Activation, 1 μM Test Compound (test compound at 1.0 μM) | SMILES | also measured |
| --- | --- | --- | --- |
| *** (greater than 20% Gcase activation) | +++ (Gcase activation greater than 60%) | Cc1cc(-c2ccc(F)c(C#N)c2)nc2c(C(=O)NC(C3CC3)C(F)(F)F)cnn12 (centres unmarked) [III-158] | – |
| *** (greater than 20% Gcase activation) | +++ (Gcase activation greater than 60%) | Cc1cc(-c2cccc(Cl)n2)nc2c(C(=O)N[C@@H](C)C(F)(F)F)cnn12 [III-236] | – |
| *** (greater than 20% Gcase activation) | +++ (Gcase activation greater than 60%) | Cc1cc(-c2cccc(Cl)n2)nc2c(C(=O)NC(C)C(F)(F)F)cnn12 (centres unmarked) [III-234] | – |
| *** (greater than 20% Gcase activation) | +++ (Gcase activation greater than 60%) | Cc1cc(-c2cncc(Cl)c2)nc2c(C(=O)NC(C3CC3)C(F)(F)F)cnn12 (centres unmarked) [III-119] | – |
| *** (greater than 20% Gcase activation) | +++ (Gcase activation greater than 60%) | COc1cccc(-c2cc(C)n3ncc(C(=O)N[C@H](C)C(F)(F)F)c3n2)c1 [III-90] | – |
| *** (greater than 20% Gcase activation) | +++ (Gcase activation greater than 60%) | COc1cncc(-c2cc(C)n3ncc(C(=O)N[C@@H](C4CC4)C(F)(F)F)c3n2)c1 [III-267] | – |
| *** (greater than 20% Gcase activation) | +++ (Gcase activation greater than 60%) | Cc1cc(-c2cncc(Cl)c2)nc2c(C(=O)N[C@@H](C)C(F)(F)F)cnn12 [III-202] | – |
